Here are results for eleven molecules from patent US12421280B2, “Insulin like growth factor binding protein bioactive peptide fragments” (Northwestern University, priority 2019, dated 2025).

Where “and” joins values, the source holds several entries; their conditions need not be identical. Equal values may be shown once.

What all share (assay type): in vivo, rat
One data set concerns male SD rats. Briefly: Porsolt forced swim test. The note with it: 1 hr post-dosing; for antidepressant-like effect in the Porsolt test as measured by floating time, compared with ketamine: 1 μg/kg i.v., FIG. 1A; for antidepressant-like effect in the Porsolt test (floating time), compared with IGFBP2: dose not specified, FIG. 2 legend; for antidepressant-like effect in the Porsolt test as measured by floating time, compared with IGFBP2: FIG. 2. On the procedure:
Adult male (2-3 month old) Sprague-Dawley (SD) rats were purchased from Harlan (USA) for the Porsolt Forced Swim Test. Rats were housed in Lucite cages with aspen wood chip bedding, maintained on a 12:12 light:dark cycle (lights on at 5 AM), and given ad libitum access to Purina lab chow (USA) and tap water throughout the study. All experiments were approved by the Sai Life Sciences (India) Animal Care and Use Committees.
Porsolt forced swim testing was conducted as described in (Burgdorf et al., Neuropsychopharmacology, (2013), 38(5):729-742). Rats were dosed with IGFBP1-7 (1 microgram/kg i.v.; peprotech, USA) (3 mg/kg, i.v.), ketamine ([…] i.v.; Sigma, USA) or 0.9% sterile saline vehicle (1 ml/kg, i.v.). Injections were made in the lateral tail vein and rats were tested 1 hr post-dosing. Animals were placed in a 46 cm tall×20 cm in diameter clear glass tube filled to 30 cm with tap water (23±1° C.) for 15 min on the first day (habituation) and 5 min on the subsequent test day. Water was changed after every other animal. Animals were videotaped, and tapes were scored offline by a blind experimenter with high inter-rater reliability (Pearson's r>0.9). Floating time (sec) was defined as the minimal amount of effort required to keep the animal's head above and diving (number of incidences) was registered when the whole body of the animal was submersed and the animal's head was facing towards the bottom of the tank.
Based on the results of the Porsolt test in Example 1, IGFBP2, IGFBP3, and IGFBP5 were identified as the best binding proteins for inducing robust antidepressant-like effects without side effects. Given the structural similarities between all 7 IGFBPs, an amino acid sequence homology was performed to identify sequences that were homologues between IGFBP2, IGFBP3, and IGFBP5 and were not consistently shared with IGFBP1, IGFBP6 and IGFBP7. Based on this analysis, three peptides were identified (KHGLYNLKQCKMSLNGQ (SEQ ID NO: 1); PKKLRP (SEQ ID NO: 2); RGD). These peptides were synthesized using standard solid phase peptide chemistry and were assessed in the Porsolt Test as described above.

The subject of data set [1] is rats. Briefly: Contextual fear extinction (model of PTSD). To be noted: 1 mg/kg IV one hour before the first extinction session. On the procedure: (§1) These experiments were conducted as described in Burgdorf et al. (Int. J. Neuropsychopharmacol., 2017, 20:476-484).
Data set [2] has as its system rats. Nature of the data set: Positive emotional learning: hedonic 50-kHz ultrasonic vocalizations during heterospecific play, with center crosses in the same assay. The note with it: 0.01, 0.1, 1, 10, and 30 mg/kg vs. vehicle, P<0.05. The protocol:
as §1

The mark [3] stands for this setting: Table 1 raw data, one value per rat, ketamine 10 mg/kg i.v., 5 min test session.

Take `CNC1(c2ccccc2Cl)CCCCC1=O` (stereo not drawn) [ket, ketamine, reference compound]: in the data set with male SD rats (setting [3]), the “diving (number of incidences)” value is 0 (6×) and 1; the “floating (floating time)” value was 30.5 s and 55 s and 79.5 s and 31.2 s and 59.3 s and 78.1 s and 39.6 s.
Consider “IGFBP3: insulin-like growth factor binding protein 3 (peprotech, USA)”, for which, in the data set on male SD rats (ketamine 10 mg/kg i.v.), the “antidepressant-like effect in the Porsolt test as measured by floating time, compared with ketamine” value is given as “equivalent antidepressant-like effect as ketamine”. Besides, the “floating (floating time)” value in the data set on male SD rats (Table 1 raw data, one value per rat, IGFBP 1 μg/kg i.v., 5 min test session, listed as BP3) was 29.3 s and 35.8 s and 42.8 s and 23.3 s and 84.9 s and 140.5 s and 142.3 s.
As for “IGFBP5: insulin-like growth factor binding protein 5 (peprotech, USA)”, the “antidepressant-like effect in the Porsolt test as measured by floating time, compared with ketamine” value with male SD rats (ketamine 10 mg/kg i.v.) is listed as “equivalent antidepressant-like effect as ketamine”. Besides, the “floating (floating time)” value with male SD rats (Table 1 raw data, one value per rat, IGFBP 1 μg/kg i.v., 5 min test session, listed as BP5) is 14.4 sec and 104.6 sec and 55 sec and 8.4 sec and 27.7 sec (2×) and 25.7 sec.
As to “IGFBP7: insulin-like growth factor binding protein 7 (peprotech, USA)”, in the data set on male SD rats (ketamine 10 mg/kg i.v.), the “antidepressant-like effect in the Porsolt test as measured by floating time, compared with ketamine” value is listed as “equivalent antidepressant-like effect”. Also, the “floating (floating time)” value with male SD rats (Table 1 raw data, one value per rat, IGFBP 1 μg/kg i.v., 5 min test session, listed as BP7) is 24.5 s and 123.8 s and 52.5 s and 94.4 s and 9.8 s and 30.8 s and 60.1 s.
Consider “KHGLYNLKQCKMSLNGQ [made by solid phase peptide chemistry]”, for which the “antidepressant-like effect in the Porsolt test (floating time), compared with IGFBP2” value in the data set on male SD rats is “equivalent antidepressant-like effect as IGFBP2”. The “floating (floating time)” value with male SD rats (Table 2 raw data, one value per rat, dose 54 (low dose, unit not given), listed as KH . . .) was 29.2 s and 26.5 s and 25.2 s and 24.2 s and 43.3 s and 33.4 s and 53.8 s and 27.4 s; in the data set with male SD rats (Table 2 raw data, one value per rat, dose 540 (high dose, unit not given), listed as KH . . .), 108.7 s and 94.8 s and 121.4 s and 149.1 s and 101.5 s and 105.8 s and 130 s and 147.9 s. Further, in the data set with male SD rats (low dose), the “antidepressant-like effect in the Porsolt test as measured by floating time, compared with IGFBP2” value was “equivalent or superior antidepressant-like effect”.
As to “PKKLRP [made by solid phase peptide chemistry]”, the “antidepressant-like effect in the Porsolt test (floating time), compared with IGFBP2” value in the data set on male SD rats is listed as “equivalent antidepressant-like effect as IGFBP2”. The “floating (floating time)” value is 16.6 s and 6.6 s and 10.2 s and 26.2 s and 18.2 s and 15.5 s and 22.4 s and 7.6 s in the data set on male SD rats (Table 2 raw data, one value per rat, dose 20 (low dose, unit not given), listed as PK . . .); 17.3 s and 4.3 s and 47.8 s and 9 s and 18.4 s and 45.6 s and 2.3 s and 7.7 s in the data set on male SD rats (Table 2 raw data, one value per rat, dose 200 (high dose, unit not given), listed as PK . . .). The “antidepressant-like effect in the Porsolt test as measured by floating time, compared with IGFBP2” value in the data set on male SD rats (high dose) and in the data set with male SD rats (low dose) was “equivalent or superior antidepressant-like effect” each time. Also, the “spontaneous recovery (difference in freezing 14 days post dosing versus extinction session 6)” value with rats [1] (FIG. 3D) was “increased”. For the same molecule, in the data set with rats [1] (sessions 1-6 drug vs. vehicle, P<0.05, FIG. 3C), the “contextual fear extinction across each test day” value is “increased contextual fear extinction”. Besides, the “center crosses (index of an anxiolytic drug effect)” value with rats [2] (FIG. 3B) is recorded as “increased”. The “positive emotional learning (rates of hedonic ultrasonic vocalizations during heterospecific play)” value with rats [2] (1 hr post dosing, FIG. 3A) is listed as “increased positive emotional learning”.
Take RGD: the “floating (floating time)” value in the data set on male SD rats (Table 2 raw data, one value per rat, dose 9 (unit not given)) is 115.4 s and 132.9 s and 113.1 s and 125.8 s and 108.2 s and 140.6 s and 139.7 s and 127.8 s; with male SD rats (Table 2 raw data, one value per rat, dose 90 (unit not given)), 137 s and 169 s and 132.7 s and 133.6 s and 81.6 s and 143.4 s and 149.6 s and 123.7 s.

B1: IGFBP1: insulin-like growth factor binding protein 1 (peprotech, USA) (protein, UniProt P08833 26-259, looked up)
Insulin-like growth …: APWQCAPCSAEKLALCPPVSASCSEVTRSAGCGCCPMCALPLGAACGVATARCARGLSCRALPGEQQPLHALTRGQGACVQESDASAPHAAEAGSPESPESTEITEEELLDNFHLMAPSEEDHSILWDAISTYDGSKALHVTNIKKWKEPCRIELYRVVESLAKAQETSGEEISKFYLPNCNKNGFYHSRQCETSMDGEAGLCWCVYPWNGKRIPGSPEIRGDPNCQIYFNVQN
Turning to B1, in the data set on male SD rats (Table 1 raw data, one value per rat, IGFBP 1 μg/kg i.v., 5 min test session, listed as BP1), the “floating (floating time)” value was 156.8 s and 143.4 s and 67.5 s and 179.1 s and 130.7 s and 96.8 s and 187.9 s.

B2: IGFBP4: insulin-like growth factor binding protein 4 (peprotech, USA) (protein, UniProt P22692 22-258, looked up)
Insulin-like growth …: DEAIHCPPCSEEKLARCRPPVGCEELVREPGCGCCATCALGLGMPCGVYTPRCGSGLRCYPPRGVEKPLHTLMHGQGVCMELAEIEAIQESLQPSDKDEGDHPNNSFSPCSAHDRRCLQKHFAKIRDRSTSGGKMKVNGAPREDARPVPQGSCQSELHRALERLAASQSRTHEDLYIIPIPNCDRNGNFHPKQCHPALDGQRGKCWCVDRKTGVKLPGGLEPKGELDCHQLADSFRE
Regarding B2, the “floating (floating time)” value in the data set on male SD rats (Table 1 raw data, one value per rat, IGFBP 1 μg/kg i.v., 5 min test session, listed as BP4) was 32.4 s and 137.2 s and 175.7 s and 189.5 s and 59 s and 64.7 s and 172.9 s.

B3: IGFBP6: insulin-like growth factor binding protein 6 (peprotech, USA) (protein, UniProt P24592 28-240, looked up)
Insulin-like growth …: RCPGCGQGVQAGCPGGCVEEEDGGSPAEGCAEAEGCLRREGQECGVYTPNCAPGLQCHPPKDDEAPLRALLLGRGRCLPARAPAVAEENPKESKPQAGTARPQDVNRRDQQRNPGTSTTPSQPNSAGVQDTEMGPCRRHLDSVLQQLQTEVYRGAQTLYVPNCDHRGFYRKRQCRSSQGQRRGPCWCVDRMGKSLPGSPDGNGSSSCPTGSSG
Regarding B3, the “antidepressant-like effect in the Porsolt test as measured by floating time, compared with ketamine” value in the data set on male SD rats (ketamine 10 mg/kg i.v.) is “equivalent antidepressant-like effect”. Besides, in the data set on male SD rats (Table 1 raw data, one value per rat, IGFBP 1 μg/kg i.v., 5 min test session, listed as BP6), the “floating (floating time)” value is 25.6 s and 36.6 s and 10.9 s and 45 s and 27.2 s and 35.5 s and 36.3 s.

B4: IGFBP2: insulin-like growth factor binding protein 2 (peprotech, USA); positive control in Example 2 (protein, UniProt P18065 36-325, looked up)
Insulin-like growth …: AEVLFRCPPCTPERLAACGPPPVAPPAAVAAVAGGARMPCAELVREPGCGCCSVCARLEGEACGVYTPRCGQGLRCYPHPGSELPLQALVMGEGTCEKRRDAEYGASPEQVADNGDDHSEGGLVENHVDSTMNMLGGGGSAGRKPLKSGMKELAVFREKVTEQHRQMGKGGKHHLGLEEPKKLRPPPARTPCQQELDQVLERISTMRLPDERGPLEHLYSLHIPNCDKHGLYNLKQCKMSLNGQRGECWCVNPNTGKLIQGAPTIRGDPECHLFYNEQQEARGVHTQRMQ
As to B4, in the data set with male SD rats (ketamine 10 mg/kg i.v.), the “antidepressant-like effect in the Porsolt test as measured by floating time, compared with ketamine” value is on record as “equivalent antidepressant-like effect as ketamine”. In addition, the “floating (floating time)” value is 59.8 s and 45.5 s and 41.6 s and 43.5 s and 25.7 s and 68.2 s and 83.6 s with male SD rats (Table 1 raw data, one value per rat, IGFBP 1 μg/kg i.v., 5 min test session, listed as BP2); 37.2 s and 67.1 s and 22 s and 35.6 s and 28.2 s and 65.8 s and 44.3 s and 79.1 s in the data set on male SD rats (Table 2 raw data, one value per rat, positive control IGFBP2, dose not given, listed as BP2).
